Assay results published in ChEMBL document CHEMBL1201862, “PubChem BioAssay data set” (2004).
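Dose response: 5 concentrations. Exposure: 48 h. Format: 96-well plates. Endpoint: linear interpolation; highest concentration if not reached. Here, GI50 denotes the concentration required for 50% inhibition of growth.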 Calls of active or inactive are those of the source. No stated cut-off is given here; in the data, active = GI50 up to about 1.1 µM and inactive = higher.

Tests used:
Experiment in all cases: NCI anticancer screen, dose series, 48 h
SR = test system: SR
HOP-62 = test system: HOP-62
A498 = test system: A498
SK-OV-3 = test system: SK-OV-3
Hs-578T = test system: Hs-578T
CAKI-1 = test system: CAKI-1
MDA-N = test system: MDA-N
ACHN = test system: ACHN
HCT-116 = test system: HCT-116
DU-145 = test system: DU-145
COLO 205 = test system: COLO 205
UACC-257 = test system: UACC-257
SN12C = test system: SN12C
IGROV-1 = test system: IGROV-1
LOX IMVI = test system: LOX IMVI
SK-MEL-5 = test system: SK-MEL-5
RPMI-8226 = test system: RPMI-8226
HCT-15 = test system: HCT-15
Malme-3M = test system: Malme-3M

SMILES	GI50 (SR)	GI50 (HOP-62)	GI50 (A498)	GI50 (SK-OV-3)	GI50 (Hs-578T)	GI50 (CAKI-1)	GI50 (MDA-N)	GI50 (ACHN)	GI50 (HCT-116)	GI50 (DU-145)	GI50 (COLO 205)	GI50 (UACC-257)	GI50 (SN12C)	GI50 (IGROV-1)	GI50 (LOX IMVI)	GI50 (SK-MEL-5)	GI50 (RPMI-8226)	GI50 (HCT-15) [µM]	GI50 (Malme-3M)
COc1cc(C2SCC(=O)N2c2ccc(-n3c(-c4ccccc4)nc4ccccc4c3=O)cc2)cc(OC)c1OC (stereo not given)	45.4 µM (inactive)	> 100 µM (inactive)	> 100 µM (inactive)	97.1 µM (inactive)	20.1 µM (inactive)	> 100 µM (inactive)	> 100 µM (inactive)	> 100 µM (inactive)	> 100 µM (inactive)	> 100 µM (inactive)	> 100 µM (inactive)	> 100 µM (inactive)	> 100 µM (inactive)	> 100 µM (inactive)	> 100 µM (inactive)	68.9 µM (inactive)	> 100 µM (inactive)	71.1	
CCOC(=O)c1cc2c([nH]1)C(=O)CC1=C2CCN1Cc1ccccc1	5.02 µM (inactive)		15.3 µM (inactive)	19.4 µM (inactive)	20.4 µM (inactive)	3.46 µM (inactive)	13.5 µM (inactive)	12.9 µM (inactive)	13 µM (inactive)	15.2 µM (inactive)	16.8 µM (inactive)	17.4 µM (inactive)	18.2 µM (inactive)	17.9 µM (inactive)	13.3 µM (inactive)		3.81 µM (inactive)	8.53	5.65 µM (inactive)
O=c1[nH][nH]c(=O)n1CCCCCCn1c(=O)[nH][nH]c1=O	> 100 µM (inactive)		> 100 µM (inactive)	> 100 µM (inactive)	> 100 µM (inactive)	> 100 µM (inactive)	> 100 µM (inactive)		> 100 µM (inactive)	> 100 µM (inactive)	> 100 µM (inactive)	> 100 µM (inactive)	> 100 µM (inactive)		> 100 µM (inactive)	> 100 µM (inactive)	> 100 µM (inactive)	> 100	> 100 µM (inactive)
CN(C)c1ccc2oc(=O)c3ccccc3c2c1	> 100 µM (inactive)	21 µM (inactive)	34.8 µM (inactive)		31.7 µM (inactive)	28.9 µM (inactive)	> 100 µM (inactive)	24.3 µM (inactive)	40.9 µM (inactive)	> 100 µM (inactive)	> 100 µM (inactive)	> 100 µM (inactive)	> 100 µM (inactive)	51.4 µM (inactive)	> 100 µM (inactive)	86.5 µM (inactive)	> 100 µM (inactive)	> 100	> 100 µM (inactive)
O=C1NC(=S)N/C1=C\c1ccc(Sc2ccccc2C(=O)O)s1	> 100 µM (inactive)	> 100 µM (inactive)	> 100 µM (inactive)		> 100 µM (inactive)	70.3 µM (inactive)	> 100 µM (inactive)	> 100 µM (inactive)	> 100 µM (inactive)	> 100 µM (inactive)	> 100 µM (inactive)	> 100 µM (inactive)	> 100 µM (inactive)	> 100 µM (inactive)	> 100 µM (inactive)	> 100 µM (inactive)	> 100 µM (inactive)	> 100	> 100 µM (inactive)
O=[N+]([O-])c1ccc([I+]c2ccccc2)cc1	2.53 µM (inactive)	11.6 µM (inactive)	2.05 µM (inactive)	2.07 µM (inactive)	3.85 µM (inactive)	3.95 µM (inactive)	6.56 µM (inactive)	6.43 µM (inactive)	3.77 µM (inactive)	8.93 µM (inactive)	3.11 µM (inactive)	4.29 µM (inactive)	1.61 µM (inactive)	16.4 µM (inactive)		8.04 µM (inactive)	11.2 µM (inactive)	7.35	4.78 µM (inactive)
